Data set [1] relates to A-549 (human lung adenocarcinoma cell line). Briefly: MTT assay, cytotoxicity against A549. In kind it is cell-based. The note with it: read-out: IC50 A549. Here is the method:
(§1) All the synthesized derivatives of HO were tested for their antiproliferative activity against four human cancer cell lines, including the HCT-116, A375, A-549, and Huh-7 cell lines, using the MTT assay. Cisplatin was used as a positive control, while lead compound HO (1) was also included in the study for comparison.
(§2) HCT-116 (Human colon cancer cell line), A375 (human melanoma cancer cell line), A-549 (human lung adenocarcinoma cell line), Huh-7 (human hepatoma cancer cell line), and L-02 (normal hepatic cell line) were purchased from the Cell Bank of Shanghai Institute of Biochemistry and Cell Biology, Chinese Academy of Sciences (Shanghai, China). The cells were cultured in Dulbecco’s modified Eagle medium (DMEM; NY, USA), which were all supplemented with 10% fetal bovine serum (FBS; NY, USA) at 37 °C with 5% CO2.
(§3) The cytotoxic activity was evaluated using the MTT assay. Briefly, cells were seeded in 96-well plates at a density of 5 × 10^3 cells/well in 100 μL of DMEM medium at 37 °C for 24 h. Stock solutions of test compounds were prepared in DMSO at concentration of 50 mM, and twofold serial dilution with a culture medium was performed to obtain appropriate concentrations right before the assay. After that, the cells were incubated with synthetic derivatives or cisplatin as a positive control at the various concentrations (0.78125-50 μM) for 48 h. Then, 20 μL of 3-(4,5-Dimethylthiazol-2-yl)-2,5-diphenyltetrazolium bromide (MTT, Aladdin, Shanghai, China) solution (5 mg/mL in PBS) was added, and then the cells were incubated at 37 °C for an additional 4 h. The supernatant was removed, and 150 μL of dimethyl sulfoxide was added to dissolve the MTT formazan. The optical density (OD) was measured on a microplate reader (SpectraMax Plus 384, Molecular Devices, Sunnyvale, CA, USA) at a wavelength of 570 nm. The cytotoxic activity was expressed as the IC50 values. The above tests were repeated three times in parallel. Vehicle DMSO (0.1%) was used as a negative control.
In general terms: Tetrazolium dyes change colour on reduction, which living cells bring about.

The subject of data set [2] is A375 (human melanoma cancer cell line). Briefly: MTT assay, cytotoxicity against A375. In kind it is cell-based. The conditions noted are these: read-out: IC50 A375. Here is the method:
as §1, §2, §3

Data set [3] has as its system HCT-116 (human colon cancer cell line). In words: MTT assay, cytotoxicity against HCT-116. The conditions noted are these: read-out: IC50 HCT-116. In kind it is cell-based. The protocol:
as §1, §2, §3

For data set [4], the system named is HCT-116, A375, A549, and Huh-7 cells. In words: MTT assay, statements for the whole panel of tested cancer cells. In kind it is cell-based, human. The conditions noted are these: for cytotoxic activities against four tested cancer cells (result in words): HCT-116, A375, A549, Huh-7, tested up to 50 μM; for IC50: Homo sapiens, all tested cancer cells (HCT-116, A375, A549, Huh-7), read-out: IC50 against tested cells; for cytotoxic activities against three other cancer cell lines (result in words): cell lines other than A549. The protocol: as §1, §2, §3

In data set [5] the test system is Huh-7 (human hepatoma cancer cell line). Briefly: MTT assay, cytotoxicity against Huh-7. The note with it: read-out: IC50 Huh-7. The data set is classed as cell-based. The protocol:
as §1, §2, §3

[6] abbreviates: Homo sapiens, A549, 48 h, MTT, 48 h, A549 cells.
[7] abbreviates: Homo sapiens, A-375, 48 h, MTT, 48 h, A375 cells.
Where [8] appears, read: Homo sapiens, HCT-116, 48 h, MTT, 48 h, HCT-116 cells.
The mark [9] stands for this setting: Homo sapiens, Huh-7, 48 h, MTT, 48 h, Huh-7 cells.

Molecules are shown by their SMILES. Entries after “also recorded” stand apart in the source; their conditions may differ. Where two headings read alike, the source gives them in different places.

As a reminder, the IC50 is the concentration that inhibits the measured activity by half. On to `Cc1ccc2c3c1C1OC4C5OC(=O)C(CC2=O)(C4C)C3C15` [Compound 7, (3R,4aR,9aS,10S)-5,10-dimethyl-2a,2a1,4a,9a1-tetrahydro-1H,3H-2,4-dioxa-3,9a-methanopentaleno [4,3,2,1-cdef]phenanthrene-1,8(9H)-dione], for which the IC50 in data set [1] (setting [6]), in data set [2] (setting [7]), in data set [3] (setting [8]) and in data set [5] (setting [9]) was greater than 50 µM each time. The “cytotoxic activities against four tested cancer cells (result in words)” value in data set [4] is “inactive; also recorded: losing of cytotoxic activities”.
`Cc1cc(=O)cc2c3c1C1OC4C5OC(=O)C(CC2=O)(C4C)C3C15` [Compound 13, (3R,4aR,10aS,11S)-5,11-dimethyl-2a,3,4a,10a1-tetrahydro-1H-2,4-dioxa-3,10a-methanocyclohepta[bc]cyclopenta[jk]acenaphthylene-1,7,9(2a1H,10H)-trione]: the IC50 in data set [1] (setting [6]), in data set [2] (setting [7]), in data set [3] (setting [8]), in data set [4] and in data set [5] (setting [9]) was greater than 50 µM in each case.
Turning to `Cc1cc(=O)c(N)c2c3c1C1OC4C5OC(=O)C(CC2)(C4C)C3C15` [Compound 2, (3R,4aR,10aS,11S)-8-amino-5,11-dimethyl-2a,3,4a,9,10,10a1-hexahydro-1H-2,4-dioxa-3,10a-methanocyclohepta[bc]cyclopenta[jk]acenaphthylene-1,7(2a1H)-dione], the IC50 in data set [1] (setting [6]), in data set [2] (setting [7]), in data set [3] (setting [8]) and in data set [5] (setting [9]) was greater than 50 µM throughout. Besides, in data set [4], the “cytotoxic activities against four tested cancer cells (result in words)” value was “losing of cytotoxic activities”.
As to `Cc1cc(=O)cc2c3c1C1OC4C5OC(=O)C(CC2OC(=O)c2ccccn2)(C4C)C3C15` [Compound 11e, (3R,4aR,9S,10aS,11S)-5,11-dimethyl-1,7-dioxo-2a,2a1,3,4a,7,9,10,10a1-octahydro-1H-2,4-dioxa-3,10a-methanocyclohepta[bc]cyclopenta[jk]acenaphthylen-9-yl picolinate], the IC50 in data set [1] (setting [6]) is 18 ± 4.18 µM; in data set [2] (setting [7]), 7.08 ± 0.42 µM; in data set [3] (setting [8]), 5.47 ± 0.27 µM; in data set [5] (setting [9]) it was greater than 50 µM. For the same compound, in data set [4], the “cytotoxic activities against three other cancer cell lines (result in words)” value is recorded as “weak cytotoxic activities”.
For the compound `N.N.[Cl][Pt][Cl]` [Cisplatin, reference compound], the IC50 was determined as 8.53 ± 0.98 µM in data set [1] (MTT, 48 h, A549 cells); 4.04 ± 0.23 µM in data set [2] (MTT, 48 h, A375 cells); 4.48 ± 0.18 µM in data set [3] (MTT, 48 h, HCT-116 cells); 15.04 ± 0.15 µM in data set [5] (MTT, 48 h, Huh-7 cells).
For the compound `Cc1cc(=O)cc2c3c1C1OC4C5OC(=O)C(CC2OC(=O)c2ccccc2)(C4C)C3C15` [Compound 11d, (3R,4aR,9S,10aS,11S)-5,11-dimethyl-1,7-dioxo-2a,2a1,3,4a,7,9,10,10a1-octahydro-1H-2,4-dioxa-3,10a-methanocyclohepta[bc]cyclopenta[jk]acenaphthylen-9-yl benzoate], the IC50 in data set [1] (setting [6]), in data set [2] (setting [7]), in data set [3] (setting [8]), in data set [4] and in data set [5] (setting [9]) was greater than 50 µM throughout.
On to `Cc1cc(=O)cc2c3c1C1OC4C5OC(=O)C(CC2OC(=O)c2ccco2)(C4C)C3C15` (stereo not shown) [Compound 11c], for which the IC50 in data set [1] (setting [6]) is 23.2 ± 0.67 µM; in data set [2] (setting [7]), 16.4 ± 1.92 µM; in data set [3] (setting [8]), 11 ± 0.34 µM; in data set [5] (setting [9]), greater than 50 µM. In addition, the “cytotoxic activities against three other cancer cell lines (result in words)” value in data set [4] was “weak cytotoxic activities”.
Turning to `Cc1cc(=O)cc2c3c1C1OC4C5OC(=O)C(CC2O)(C4C)C3C15` [Compound 12, (3R,4aR,9R,10aS,11S)-9-hydroxy-5,11-dimethyl-2a,3,4a,9,10,10a1-hexahydro-1H-2,4-dioxa-3,10a-methanocyclohepta[bc]cyclopenta[jk]acenaphthylene-1,7(2a1H)-dione], the IC50 in data set [1] (MTT, 48 h, A549 cells) was 34.7 ± 1.94 µM; in data set [2] (MTT, 48 h, A375 cells), 40.4 ± 7.58 µM; in data set [3] (MTT, 48 h, HCT-116 cells), 31.9 ± 0.69 µM; in data set [5] (MTT, 48 h, Huh-7 cells), greater than 50 µM.
Consider `CC(=O)Nc1c2c3c(c(C)cc1=O)C1OC4C5OC(=O)C(CC2)(C4C)C3C15` [Compound 3, N-((3R,4aR,10aS,11S)-5,11-dimethyl-1,7-dioxo-2a,2a1,3,4a,7,9,10,10a1-octahydro-1H-2,4-dioxa-3,10a-methanocyclohepta[bc]cyclopenta[jk]acenaphthylen-8-yl) acetamide], for which the IC50 in data set [1] (setting [6]), in data set [2] (setting [7]), in data set [3] (setting [8]) and in data set [5] (setting [9]) was greater than 50 µM throughout. Further, in data set [4], the “cytotoxic activities against four tested cancer cells (result in words)” value is on record as “losing of cytotoxic activities”.
For `Cc1cc(=O)cc2c3c1C1OC4C5OC(=O)C(CC2Br)(C4C)C3C15` [Compound 8, (3R,4aR,9R,10aS,11S)-9-bromo-5,11-dimethyl-2a,3,4a,9,10,10a1-hexahydro-1H-2,4-dioxa-3,10a-methanocyclohepta[bc]cyclopenta[jk]acenaphthylene-1,7(2a1H)-dione], the IC50 came out at 43.4 ± 1.08 µM in data set [1] (setting [6]), 3.4 ± 0.22 µM in data set [2] (setting [7]), 2.19 ± 0.23 µM in data set [3] (setting [8]) and 30.8 ± 0.6 µM in data set [5] (setting [9]).
For the compound `CC(=O)OC1CC23C(=O)OC4C(OC5c6c(C)cc(=O)cc1c6C2C54)C3C` [Compound 11a, (3R,4aR,9S,10aS,11S)-5,11-dimethyl-1,7-dioxo-2a,2a1,3,4a,7,9,10,10a1-octahydro-1H-2,4-dioxa-3,10a-methanocyclohepta[bc]cyclopenta[jk]acenaphthylen-9-yl acetate], the IC50 in data set [1] (setting [6]) is 27.5 ± 0.89 µM; in data set [2] (setting [7]), 30.1 ± 1.58 µM; in data set [3] (setting [8]), 5.95 ± 0.45 µM; in data set [5] (setting [9]), greater than 50 µM. In data set [4], the “cytotoxic activities against three other cancer cell lines (result in words)” value was “weak cytotoxic activities”.
Take `COc1c2c3c(c(C)cc1=O)C1OC4C5OC(=O)C(CC2)(C4C)C3C15` [Compound 9, (3R,4aR,10aS,11S)-8-methoxy-5,11-dimethyl-2a,3,4a,9,10,10a1-hexahydro-1H-2,4-dioxa-3,10a-methanocyclohepta[bc]cyclopenta[jk]acenaphthylene-1,7(2a1H)-dione]: the IC50 is greater than 50 µM in data set [1] (Homo sapiens, A549, 48 h); greater than 50 µM in data set [2] (Homo sapiens, A-375, 48 h); greater than 50 µM in data set [3] (Homo sapiens, HCT-116, 48 h); greater than 50 µM in data set [5] (Homo sapiens, Huh-7, 48 h). The “cytotoxic activities against four tested cancer cells (result in words)” value in data set [4] is “inactive; also recorded: losing of cytotoxic activities”.
With `Cc1cc(=O)cc2c3c1C1OC4C5OC(=O)C(CC2OC(=O)c2nc(C)c(C)nc2C)(C4C)C3C15` [Compound 11f, (3R,4aR,9S,10aS,11S)-5,11-dimethyl-1,7-dioxo-2a,2a1,3,4a,7,9,10,10a1-octahydro-1H-2,4-dioxa-3,10a-methanocyclohepta[bc]cyclopenta[jk]acenaphthylen-9-yl 3,5,6-trimethylpyrazine-2-carboxylate], the IC50 in data set [1] (setting [6]) is 25.9 ± 0.68 µM; in data set [2] (setting [7]), 18.6 ± 2.23 µM; in data set [3] (setting [8]), 10.8 ± 0.42 µM; in data set [5] (setting [9]), greater than 50 µM. In addition, in data set [4], the “cytotoxic activities against three other cancer cell lines (result in words)” value was “weak cytotoxic activities”.
In the case of `Cc1cc(=O)cc2c3c1C1OC4C5OC(=O)C(CC2OC(=O)CCC(=O)O)(C4C)C3C15` [Compound 11b, 4-(((3R,4aR,9S,10aS,11S)-5,11-dimethyl-1,7-dioxo-2a,2a1,3,4a,7,9,10,10a1-octahydro-1H-2,4-dioxa-3,10a-methanocyclohepta[bc]cyclopenta[jk]acenaphthylen-9-yl)oxy)-4-oxobutanoic acid], the IC50 in data set [1] (setting [6]), in data set [2] (setting [7]), in data set [3] (setting [8]), in data set [4] and in data set [5] (setting [9]) was greater than 50 µM each time.

Source of the values: article PMC7961763, “Semi-Synthesis of Harringtonolide Derivatives and Their Antiproliferative Activity” (Molecules, 2021).
